# Source: patent publication US20250073255A1, “USE OF FA-TYPE LIPID COMPOUNDS IN PREPARATION OF NUCLEIC ACID DELIVERY REAGENT AND RELATED PRODUCT” (BEIJING BAISHIKANG PHARMACEUTICAL TECHNOLOGY (BSJPHARMA) …, priority 2021, published 2025)
# Test system: C57BL/6 male mice
# Experiment: In vivo delivery study of lipid nucleic acid mixture (oral gavage, RT-qPCR of PGY-sRNA-26 in tissues)
# Design: species or system mouse
# Details: for oral delivery of single-stranded sRNA nucleic acids into mouse brain tissue / oral delivery of single-stranded sRNA nucleic acids into mouse femur / oral delivery of single-stranded sRNA nucleic acids into mouse heart tissue / oral delivery of single-stranded sRNA nucleic acids into mouse intestinal tissue / oral delivery of single-stranded sRNA nucleic acids into mouse liver tissue / oral delivery of single-stranded sRNA nucleic acids into mouse lung tissue / oral delivery of single-stranded sRNA nucleic acids into mouse stomach tissue / oral delivery of single-stranded sRNA nucleic acids into mouse blood / oral delivery of single-stranded sRNA nucleic acids into mouse kidney tissue / oral delivery of single-stranded sRNA nucleic acids into mouse spleen tissue: 100 μg lipid:10 nmol PGY-sRNA-26, sampled after 12 hours; for oral delivery of single-stranded sRNA nucleic acids into mouse heart tissue: vs free uptake group; for oral delivery of single-stranded sRNA nucleic acids into mouse intestinal tissue: intestine; for overall delivery efficacy: delivering nucleic acids into each tissue and blood tested: 100 μg lipid:10 nmol PGY-sRNA-26, all tissues and blood tested
# Outline: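 Stem-loop RT and SYBR qPCR, normalized to U6, measured PGY-sRNA-26 in blood and organs 12 h after gavage. Dosing was 10 nmol sRNA with 100 μg lipid, pre-mixed and heated 15 min at 90 °C, in 12-h-fasted mice, against saline and free-sRNA groups.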
smiles,measurement,value
"CCCCCCCCCCCCCCCCCCCC(=O)O [Lipid 624, icosanoic acid]",oral delivery of single-stranded sRNA nucleic acids into mouse brain tissue,can effectively orally deliver
same,oral delivery of single-stranded sRNA nucleic acids into mouse femur,can effectively orally deliver
same,oral delivery of single-stranded sRNA nucleic acids into mouse heart tissue,can effectively orally deliver
same,oral delivery of single-stranded sRNA nucleic acids into mouse intestinal tissue,can effectively orally deliver
same,oral delivery of single-stranded sRNA nucleic acids into mouse liver tissue,can effectively orally deliver
same,oral delivery of single-stranded sRNA nucleic acids into mouse lung tissue,can effectively orally deliver
same,oral delivery of single-stranded sRNA nucleic acids into mouse stomach tissue,can effectively orally deliver
"O=C(O)C/C=C/CC(=O)O [Lipid 607, (E)-hex-3-enedioic acid]",oral delivery of single-stranded sRNA nucleic acids into mouse blood,can effectively orally deliver
same,oral delivery of single-stranded sRNA nucleic acids into mouse femur,can effectively orally deliver
same,oral delivery of single-stranded sRNA nucleic acids into mouse heart tissue,can effectively orally deliver
same,oral delivery of single-stranded sRNA nucleic acids into mouse kidney tissue,can effectively orally deliver
same,oral delivery of single-stranded sRNA nucleic acids into mouse liver tissue,can effectively orally deliver
same,oral delivery of single-stranded sRNA nucleic acids into mouse stomach tissue,can effectively orally deliver
"O=C(O)CCCCCCCCCCCCCCC(=O)O [Lipid 529, hexadecanedioic acid]",overall delivery efficacy: delivering nucleic acids into each tissue and blood tested,best delivery efficacy
same,oral delivery of single-stranded sRNA nucleic acids into mouse blood,can effectively orally deliver
same,oral delivery of single-stranded sRNA nucleic acids into mouse brain tissue,can effectively orally deliver
same,oral delivery of single-stranded sRNA nucleic acids into mouse femur,can effectively orally deliver
same,oral delivery of single-stranded sRNA nucleic acids into mouse heart tissue,can effectively orally deliver
same,oral delivery of single-stranded sRNA nucleic acids into mouse intestinal tissue,can effectively orally deliver
same,oral delivery of single-stranded sRNA nucleic acids into mouse kidney tissue,can effectively orally deliver
same,oral delivery of single-stranded sRNA nucleic acids into mouse liver tissue,can effectively orally deliver
same,oral delivery of single-stranded sRNA nucleic acids into mouse lung tissue,can effectively orally deliver
same,oral delivery of single-stranded sRNA nucleic acids into mouse spleen tissue,can effectively orally deliver
same,oral delivery of single-stranded sRNA nucleic acids into mouse stomach tissue,can effectively orally deliver
"N[C@@H](CCCC(=O)O)C(=O)O [Lipid 595, (2S)-2-aminohexanedioic acid]",overall delivery efficacy: delivering nucleic acids into each tissue and blood tested,best delivery efficacy
same,oral delivery of single-stranded sRNA nucleic acids into mouse blood,can effectively orally deliver
same,oral delivery of single-stranded sRNA nucleic acids into mouse brain tissue,can effectively orally deliver
same,oral delivery of single-stranded sRNA nucleic acids into mouse femur,can effectively orally deliver
same,oral delivery of single-stranded sRNA nucleic acids into mouse heart tissue,can effectively orally deliver
same,oral delivery of single-stranded sRNA nucleic acids into mouse intestinal tissue,can effectively orally deliver
same,oral delivery of single-stranded sRNA nucleic acids into mouse kidney tissue,can effectively orally deliver
same,oral delivery of single-stranded sRNA nucleic acids into mouse liver tissue,can effectively orally deliver
same,oral delivery of single-stranded sRNA nucleic acids into mouse lung tissue,can effectively orally deliver
same,oral delivery of single-stranded sRNA nucleic acids into mouse spleen tissue,can effectively orally deliver
same,oral delivery of single-stranded sRNA nucleic acids into mouse stomach tissue,can effectively orally deliver
"NC(CCCC(=O)O)C(=O)O (stereo not shown) [Lipid 530, 2-aminohexanedioic acid]",overall delivery efficacy: delivering nucleic acids into each tissue and blood tested,best delivery efficacy
same,oral delivery of single-stranded sRNA nucleic acids into mouse blood,can effectively orally deliver
same,oral delivery of single-stranded sRNA nucleic acids into mouse brain tissue,can effectively orally deliver
same,oral delivery of single-stranded sRNA nucleic acids into mouse femur,can effectively orally deliver
same,oral delivery of single-stranded sRNA nucleic acids into mouse heart tissue,can effectively orally deliver
same,oral delivery of single-stranded sRNA nucleic acids into mouse intestinal tissue,can effectively orally deliver
same,oral delivery of single-stranded sRNA nucleic acids into mouse kidney tissue,can effectively orally deliver
same,oral delivery of single-stranded sRNA nucleic acids into mouse liver tissue,can effectively orally deliver
same,oral delivery of single-stranded sRNA nucleic acids into mouse lung tissue,can effectively orally deliver
same,oral delivery of single-stranded sRNA nucleic acids into mouse spleen tissue,can effectively orally deliver
same,oral delivery of single-stranded sRNA nucleic acids into mouse stomach tissue,can effectively orally deliver
